Measurements from US8741934B2, “Inhibitors of ion channels” (Pfizer Limited, priority 2007, dated 2014).

Molecular target: T1, hSCN3A sodium channels (Homo sapiens, UniProt Q9NY46)
T1 construct: expressed in transfected cells
Test: hSCN3A electrophysiology, Ionworks Quattro automated platform (Table C)
Type: cell-based
Details: for inhibition at 3 µM: read-out: SCN3A % INHIB HTS IWQ 3 μM; for inhibition at 10 µM: read-out: SCN3A % INHIB HTS IWQ 10 μM
Protocol: Human Embryonic Kidney (HEK) cells were transfected with an hSCN3A construct using lipofectamine reagent (Invitrogen), using standard techniques. […] Clones were screened for expression using the whole-cell voltage-clamp technique.
HEK cells stably transfected with hSCN3A were maintained in DMEM medium supplemented with 10% heat-inactivated fetal bovine serum and 400 μg/ml G418 sulfate in an incubator at 37° C. with a humidified atmosphere of 10% CO2. […] For electrophysiological studies, cells were removed from the culture flask by brief trypsinization and replated at low density onto glass cover slips. Cells were typically used for electrophysiological experiments within 24 to 72 h after plating.
Electrophysiological assays were also conducted using the Ionworks Quattro automated electrophysiological platform (Molecular Devices Corp) (Table C). Intracellular and extracellular solutions were as described above with the following changes, 100 μg/ml amphotericin was added to the intracellular solution to perforate the membrane and allow electrical access to the cells. hSCN3A cells were grown and harvested as for PatchXpress and cells were resuspended in extracellular solution at a concentration of 3-4×10^6 cells/ml. The onboard liquid handling facility of the Ionworks Quattro was used for dispensing cells and application of test compounds. A voltage protocol was then applied that comprised of a voltage step to fully inactivate the sodium channels, followed by a brief hyperpolarized recovery period to allow partial recovery from inactivation for unblocked sodium channels, followed by a test depolarized voltage step to assess magnitude of inhibition by test compound. Compound effect was determined based on current amplitude difference between the pre-compound addition and post-compound addition scans.

T1 sequence (Q9NY46 whole entry): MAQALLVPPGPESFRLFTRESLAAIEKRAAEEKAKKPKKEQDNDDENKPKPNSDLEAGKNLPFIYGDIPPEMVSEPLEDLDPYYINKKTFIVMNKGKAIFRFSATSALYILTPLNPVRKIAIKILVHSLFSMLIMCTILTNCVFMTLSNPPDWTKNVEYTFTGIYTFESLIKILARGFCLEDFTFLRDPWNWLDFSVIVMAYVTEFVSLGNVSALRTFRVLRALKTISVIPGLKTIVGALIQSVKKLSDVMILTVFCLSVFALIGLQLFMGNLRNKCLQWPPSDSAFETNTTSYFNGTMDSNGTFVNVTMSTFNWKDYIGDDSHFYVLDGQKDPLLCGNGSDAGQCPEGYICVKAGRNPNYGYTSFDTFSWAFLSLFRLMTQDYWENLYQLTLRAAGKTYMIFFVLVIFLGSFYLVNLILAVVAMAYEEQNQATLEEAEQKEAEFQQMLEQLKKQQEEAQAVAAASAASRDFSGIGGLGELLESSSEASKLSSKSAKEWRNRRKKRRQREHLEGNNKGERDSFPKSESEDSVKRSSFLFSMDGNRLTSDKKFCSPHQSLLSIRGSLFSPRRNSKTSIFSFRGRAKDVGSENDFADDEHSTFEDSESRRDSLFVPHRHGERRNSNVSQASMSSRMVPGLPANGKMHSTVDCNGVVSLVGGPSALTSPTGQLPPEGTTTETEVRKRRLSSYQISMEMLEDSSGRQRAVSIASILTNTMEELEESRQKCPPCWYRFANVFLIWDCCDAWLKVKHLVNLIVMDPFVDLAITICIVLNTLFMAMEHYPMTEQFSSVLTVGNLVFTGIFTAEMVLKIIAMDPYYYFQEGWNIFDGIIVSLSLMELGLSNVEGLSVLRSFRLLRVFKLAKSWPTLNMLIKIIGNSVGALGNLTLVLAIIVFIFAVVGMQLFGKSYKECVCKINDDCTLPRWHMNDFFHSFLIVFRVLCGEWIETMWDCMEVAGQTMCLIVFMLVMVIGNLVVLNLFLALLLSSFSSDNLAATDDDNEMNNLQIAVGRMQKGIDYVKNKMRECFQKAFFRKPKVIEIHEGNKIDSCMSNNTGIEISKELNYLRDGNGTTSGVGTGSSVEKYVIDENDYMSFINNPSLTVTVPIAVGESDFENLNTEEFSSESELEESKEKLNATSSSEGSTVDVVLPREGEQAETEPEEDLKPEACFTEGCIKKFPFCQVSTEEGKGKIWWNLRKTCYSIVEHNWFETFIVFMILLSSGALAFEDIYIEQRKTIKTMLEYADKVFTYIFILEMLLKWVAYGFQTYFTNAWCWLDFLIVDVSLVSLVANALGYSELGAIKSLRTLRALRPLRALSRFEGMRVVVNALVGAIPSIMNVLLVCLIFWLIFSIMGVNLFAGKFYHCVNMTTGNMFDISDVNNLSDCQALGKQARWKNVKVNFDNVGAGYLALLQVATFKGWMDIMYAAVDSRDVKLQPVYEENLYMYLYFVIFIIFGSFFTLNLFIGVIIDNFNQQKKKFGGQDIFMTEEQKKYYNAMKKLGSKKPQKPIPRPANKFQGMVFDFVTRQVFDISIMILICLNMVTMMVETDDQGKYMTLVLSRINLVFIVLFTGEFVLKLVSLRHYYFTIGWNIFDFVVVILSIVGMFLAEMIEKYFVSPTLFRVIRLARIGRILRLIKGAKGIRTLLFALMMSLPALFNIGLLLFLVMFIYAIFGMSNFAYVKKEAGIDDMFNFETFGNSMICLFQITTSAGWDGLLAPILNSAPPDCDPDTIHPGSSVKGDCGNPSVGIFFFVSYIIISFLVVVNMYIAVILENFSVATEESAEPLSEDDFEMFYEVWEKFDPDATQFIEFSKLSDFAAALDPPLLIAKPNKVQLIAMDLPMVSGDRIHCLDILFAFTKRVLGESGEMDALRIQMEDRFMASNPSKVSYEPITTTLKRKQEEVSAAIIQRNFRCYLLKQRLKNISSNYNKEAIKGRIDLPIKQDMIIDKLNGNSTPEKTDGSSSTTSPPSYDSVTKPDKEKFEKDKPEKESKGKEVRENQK

Compound	inhibition at 3 µM (3 μM compound) [%]	inhibition at 10 µM (10 μM compound) [%]	SCN3A % INHIB HTS IWQ 3 μM (3 μM compound) [%]	SCN3A % INHIB HTS IWQ 10 μM (10 μM compound) [%]
COc1cccc(CCNC(=O)c2ccc(S(=O)(=O)Nc3nccs3)cc2)c1 [Example 166, N-[2-(3-methoxyphenyl)ethyl]-4-[(1,3-thiazol-2-ylamino)sulfonyl]benzamide]	30.6	36.3		
N-[1-(3-methylbenzyl)cyclopropyl] 4-[(1,3-thiazol-2-ylamino)sulfonyl]benzamide [Example 159]			28.7	35.85
O=C(c1ccc(S(=O)(=O)Nc2nccs2)cc1)N1CCCCCC1c1ccccn1 (stereo not shown) [Example 255, 4-[(2-Pyridin-2-ylazepan-1-yl)carbonyl]-N-1,3-thiazol-2-yl-benzenesulfonamide]	4.16	6.56		
O=C(c1ccc(S(=O)(=O)Nc2nccs2)cc1)N(Cc1ccc(F)cc1)C1CC1 [Example 230, N-cyclopropyl-N-(4-fluorobenzyl)-4-[(1,3-thiazol-2-yl-amino)sulfonyl]benzamide]	16.7	-0.51		
Cc1nccc(C2CCCN2C(=O)c2ccc(S(=O)(=O)Nc3nccs3)cc2)n1 (stereo not shown) [Example 212, 4-{[2-(2-Methylpyrimidin-4-yl)pyrrolidin-1-yl]carbonyl}-N-1,3-thiazol-2-yl-benzenesulfonamide]	14.7	-8.45		
O=C(c1ccc(S(=O)(=O)Nc2nccs2)cc1)N(Cc1ccccc1)[C@@H]1CCCC[C@H]1O [Example 213, N-benzyl-N-[(1R,2R)-2-hydroxycyclohexyl]-4-[(1,3-thiazol-2-yl-amino)sulfonyl]benzamide]	-0.67	1.51		
O=C(c1ccc(S(=O)(=O)Nc2nccs2)cc1)N1CCCCCC1c1ccccc1 (stereo not shown) [Example 268, 4-[(2-Phenylazepan-1-yl)carbonyl]-N-1,3-thiazol-2-yl-benzenesulfonamide]	11	10.6		
O=C(N[C@@H]1CCC[C@@H]1c1ccc(F)cc1)c1ccc(S(=O)(=O)Nc2nccs2)cc1 [Example 132, N-[(1R,2R)-2-(4-fluorophenyl)cyclopentyl]-4-[(1,3-thiazol-2-ylamino)sulfonyl]benzamide]	19.7	15.3		
O=C(c1ccc(S(=O)(=O)Nc2nccs2)cc1)N1CCCC[C@@H]1c1ccccn1 [Example 261, 4-{[(2R)-2-pyridin-2-yl-piperidin-1-yl]carbonyl}-N-1,3-thiazol-2-yl-benzenesulfonamide]	6.02	10.4		
O=C(NC(CO)c1ccccc1)c1ccc(S(=O)(=O)Nc2nccs2)cc1 (stereo not shown) [Example 57, N-(2-hydroxy-1-phenylethyl)-4-[(1,3-thiazol-2-ylamino)sulfonyl]benzamide]	25.2	47.8		
COc1cccc(C2CCCCCN2C(=O)c2ccc(S(=O)(=O)Nc3nccs3)cc2)c1 (stereo not shown) [Example 275, 4-{[2-(3-Methoxyphenyl)azepan-1-yl]carbonyl}-N-1,3-thiazol-2-yl-benzenesulfonamide]	9.93	-0.2		
COc1cccc(C2CCCN2C(=O)c2ccc(S(=O)(=O)Nc3nccs3)cc2)c1 (stereo not shown) [Example 273, 4-{[2-(3-Methoxyphenyl)pyrrolidin-1-yl]carbonyl}-N-1,3-thiazol-2-yl-benzenesulfonamide]	4.82	2.72		
Cc1noc(C(NC(=O)c2ccc(S(=O)(=O)Nc3nccs3)cc2)c2ccccc2)n1 (stereo not shown) [Example 183, N-[(3-methyl-1,2,4-oxadiazol-5-yl)(phenyl)methyl]-4-[(1,3-thiazol-2-ylamino)sulfonyl]benzamide]	8.9	1.34		
COc1ccc(CC2CCCN2C(=O)c2ccc(S(=O)(=O)Nc3nccs3)cc2)cc1 (stereo not shown) [Example 206, 4-{[2-(4-Methoxybenzyl)pyrrolidin-1-yl]carbonyl}-N-1,3-thiazol-2-yl-benzenesulfonamide]	4.17	16.7		
